Values of other authors in patent US10544066B2, “Microencapsulated nitrification inhibitor compositions” (DOW AGROSCIENCES LLC, priority 2014, dated 2020).

Conditions: at 23° Celsius

For `Clc1cccc(C(Cl)(Cl)Cl)n1` [nitrapyrin, 2-chloro-6-(trichloromethyl)pyridine], the vapor pressure is listed as 2.8×10^−3 mm Hg.
